Results: patent publication US6399590B2, “Phosphoglycolipid and methods for its use” (Corixa Corporation, priority 1998, dated 2002)

Key:
[1] = system: Mongrel dogs, LAD occlusion/reperfusion; assay: Infarct size in dogs with bolus plus drug infusion; format: in vivo, dog; settings: FIG. 3
Description: Mongrel dogs weighing 16-24 kg were randomly assigned to one of four groups: vehicle control; L34 high dose bolus plus infusion; L34 low dose bolus plus infusion and L34 bolus only. Animals in the L34 high dose bolus plus infusion group received an intravenous bolus injection of 70 μg/kg L34 formulated in vehicle (40% propylene glycol and 10% ethanol in water) and diluted in 5% dextrose in water to a final volume of 10 ml immediately followed by 40 μg/kg/h infusion of the drug beginning three hours prior to occlusion. The low dose bolus plus infusion group of dogs were bolus dosed with 35 μg/kg of drug followed immediately thereafter by infusion of drug at a dose of 4.0 μg/kg/h. […]
After stabilization, animals underwent a 60 min period of occlusion. Heart rate and arterial pressures were monitored at baseline, immediately before the sustained occlusion, and at 10 min after the onset of occlusion. […] The severity of ischemia was assessed in all dogs by measurement of RMBF at 10 min after the onset of LAD occlusion.
At the end of 3 h reperfusion the LAD was reoccluded and UNISPERSE® blue pigment (0.25-0.5 ml/kg) was injected into the coronary vasculature via the left atrial catheter to delineate the in vivo boundaries of the occluded LAD bed, and, with animals under deep anesthesia, cardiac arrest was produced by intracardiac injection of KCl. […] RMBF was then quantified using standard methods.

[2] = system: canine model of repetitive transient regional ischemia; assay: Myocardial stunning in dogs, repetitive transient regional ischemia; format: in vivo, dog
Description: The compound of the subject invention provided both an acute and delayed protective effect against cardiac stunning in dogs. Pretreatment of dogs with the compound of the subject invention 10 minutes and 24 hours prior to ischemia produced significant improvement in the recovery of regional segment shortening (%SS) in the ischemic-reperfused myocardium of anesthetized dogs subjected to a multiple ischemia/reperfusion stunning protocol. Dogs were subjected to five 5-minute periods of coronary artery occlusion interspersed with 10 minute periods of reperfusion and finally followed by 2 hours of reperfusion. Regional systolic shortening in the subendocardium of the ischemic area was determined by sonomicrometry by placing a set of piezoelectric crystals in the subendocardium approximately 10-15 mm apart. Regional myocardial blood flow was determined by the radioactive microsphere technique during the first 5 min occlusion period and at the end of 2 h of reperfusion. Hemodynamics and blood gases were also measured at various times throughout the experiment. There was no significant differences between the control and pretreated groups in body weight, left ventricular weight, area at risk weight or the area at risk as a % of the left ventricle. […]

[3] = system: TNF-α secretion by THP-1 cells; assay: TNF-α secretion in THP-1 cells (ELISA); format: cell-based, human; settings: any concentration between 1 ng/ml and 10 μg/ml; supernatants at 4, 16 and 24 hours
Description: The human myelomonocytic cell line THP-1 is commonly used for the analysis of the proinflammatory status of various compounds. THP-1 cells (American Type Culture Collections Cat. No. 202-TIB) were grown in RPMI 1640, 10% heat inactivated fetal bovine serum (FBS) and […] β-mercaptoethanol to a cell density of between 4×10^5/ml and 7×10^5/ml. Cells were removed from culture and resuspended at 1×10^6 cells/ml in RPMI 1640 containing 5% fetal bovine serum. Resuspended cells were then pipetted into sterile, disposable polystyrene 150×25 mm petri dishes and treated with the natural maturational agent 1α, 25-dihyroxyvitamin D3 at 1×10^−7 M between 24 and 72 hours depending on the degree of maturation desired. These maturationally “pretreated” cells were then washed 3× in RPMI 1640 containing more than 2% but less than 10% fetal bovine serum. After the third wash cells were resuspended in RPMI 1640 containing 5% FBS plus 2% human AB sera (Irvine Scientific) at 5×10^5 cells/ml and transferred at 2 ml per well in a tissue culture grade, flat bottom polystyrene 24 well plate. […] Cytokine concentration in the THP-1 culture supernatants were quantified using standard human cytokine ELISA kits from R&D Laboratories. […]

rabbits (fever response) = assay: Three rabbit USP pyrogen test; format: in vivo; design: key to Average Temperature Rise: body temperature rise in °F (decreases recorded as zero)
Description: The compound of the subject invention was evaluated for pyrogenicity using a standard three rabbit USP pyrogen test (NAMSA, Northwood Ohio) at dose levels between 10 and 1000 μg/kg. Three rabbits were intravenously administered the compound in 40% propylene glycol and 10% ethanol in water at varying doses diluted one to one in D5W prior to dosing. Each animal's body temperature was monitored over the course of 4 h. Pyrogenic doses and borderline pyrogenic doses were defined by established USP definitions. Any temperature decrease was recorded as a rise of zero. An individual rise in temperature of less than 0.5° F. was considered non-pyrogenic.

## CCCCCCCCCCCCCCCCCC(=O)O[C@H](CCCCCCCCCCC)CC(=O)N[C@H]1[C@H](OC[C@H]2OC(O)[C@H](NC(=O)C[C@@H](CCCCCCCCCCC)OC(=O)CCCCCCCCCCCCCCC)[C@@H](O)[C@@H]2O)O[C@H](CO)[C@@H](OP(=O)(O)O)[C@@H]1OC(=O)C[C@@H](CCCCCCCCCCC)OC(=O)CCCCCCCCCCCCC (stereo partly drawn) [L34, 2-Deoxy-6-O-[2-deoxy-4-O-phosphono-3-O-[(R)-3-tetradecanoyloxytetradecanoyl]-2-[(R)-3-octadecanoyloxytetradecanoylamino]-β-D-glucopyranosyl]-2-[(R)-3-hexadecanoyloxytetradecanoylamino]-D-glucopyranose]
[1]; 70 μg/kg bolus only, 3 h before occlusion
  infarct size as ratio of area of necrosis (AN) to area at risk (AR): no reduction in infarct size
[1]; bolus (70 or 35 μg/kg) plus infusion (40 or 4.0 μg/kg/h) beginning 3 h prior to occlusion
  infarct size as ratio of area of necrosis (AN) to area at risk (AR): statistically significant reduction in infarct size
[2]; 24 h pretreatment, after 1st and 4th occlusion and all times of final 2 h reperfusion, FIG. 6
  recovery of regional wall motion (%SS) vs control group: significantly greater recovery of regional wall motion (%SS)
[2]; pretreatment 10 min prior to first occlusion, after 1st, 2nd, 4th occlusion and all times of final 2 h reperfusion, FIG. 5
  recovery of regional wall motion (%SS) vs control group: significantly greater recovery of regional wall motion (%SS)
[3]
  TNF-α secretion: did not induce detectable
Rabbits (fever response); L34 dose 10 μg/kg i.v.
  Average Temperature Rise: 0.14
Rabbits (fever response); L34 dose 20 μg/kg i.v.
  Average Temperature Rise: 0.17
Rabbits (fever response); L34 dose 30 μg/kg i.v.
  Average Temperature Rise: 0.17
Rabbits (fever response); L34 dose 40 μg/kg i.v.
  Average Temperature Rise: 0.00
Rabbits (fever response); L34 dose 60 μg/kg i.v.
  Average Temperature Rise: 0.10
Rabbits (fever response); L34 dose 80 μg/kg i.v.
  Average Temperature Rise: 0.13
Rabbits (fever response); L34 dose 120 μg/kg i.v.
  Average Temperature Rise: 0.23
Rabbits (fever response); L34 dose 160 μg/kg i.v.
  Average Temperature Rise: 0.17
Rabbits (fever response); L34 dose 240 μg/kg i.v.
  Average Temperature Rise: 0.00
Rabbits (fever response); L34 dose 360 μg/kg i.v.
  Average Temperature Rise: 0.30
Rabbits (fever response); L34 dose 480 μg/kg i.v.
  Average Temperature Rise: 0.06
Rabbits (fever response); L34 dose 500 μg/kg i.v.
  Average Temperature Rise: 0.12
Rabbits (fever response); L34 dose 1000 μg/kg i.v.
  Average Temperature Rise: 0.10
Rabbits (fever response); i.v., dose levels between 10 and 1000 μg/kg
  pyrogenicity: not pyrogenic at any of the doses tested
